The test concerns dogs in hemorrhagic shock. The test can be described thus: Treatment effect of polydatin drug compositions to dogs in hemorrhagic shock (Embodiment 20). It is filed as in vivo, Beagle dogs.

Consider `NCCc1ccc(O)c(O)c1` [dopamine], for which the “average survival time (hour, x ± s)” value (3.0 mg/kg, continuous intravenous infusion 120 min, long-term survival calculated with 168 hours) is 103.00 ± 89.01 h. The survival rate is given as 3 number/5 (24 hours, 3.0 mg/kg); 3 number/5 (48 hours, 3.0 mg/kg); 3 number/5 (72 hours, 3.0 mg/kg). For the same molecule, the “pulse pressure difference (FIG. 2)” value (dogs in hemorrhagic shock, during and after infusion) was “increasing range is obviously lower than the polydatin groups”.

Source of the values: patent US20080261902A1, “Pharmaceutical composition containing polydatin and its application” (Shenzhen Neptunus Pharmaceutical Co., Ltd., priority 2005, published 2008).
